Values of other authors in patent US7435726B2, “Compositions and methods for the treatment of cancer” (Celgene Corporation, priority 2001, dated 2008).

Conditions: irinotecan monotherapy, expected frequency

CCc1c2c(nc3ccc(OC(=O)N4CCC(N5CCCCC5)CC4)cc13)-c1cc3c(c(=O)n1C2)COC(=O)[C@]3(O)CC [Irinotecan, (4S)-4,11-diethyl-4-hydroxy-9-[(4-piperidino-piperidino)carbonyl-oxy]1H-pyranol-[3′,4′:6,7]indolizinol[1,2-b]quinoline-3,14-(4H,12H)dione]
Abdominal colic/pain, Expected (%) Grade 1-4: 23.7%
Abdominal colic/pain, Expected (%) Grade 3-4: 2.3%
Asthenia, Expected (%) Grade 1-4: 75.7%
Asthenia, Expected (%) Grade 3-4: 12.2%
Constipation, Expected (%) Grade 1-4: 29.9%
Constipation, Expected (%) Grade 3-4: 2.0%
Diarrhea (Late), Expected (%) Grade 1-4: 87.8%
Diarrhea (Late), Expected (%) Grade 3-4: 30.6%
Nausea, Expected (%) Grade 1-4: 86.2%
Vomiting, Expected (%) Grade 1-4: 66.8%
Vomiting, Expected (%) Grade 3-4: 12.5%
